Experimental data: US20230405063A1, “USE OF PROBIOTIC COMPONENT AND PHARMACEUTICAL COMPOSITION CONTAINING PROBIOTIC COMPONENT” (CHENGDU KUACHANGAOPU MEDICAL TECHNOLOGY CO., LTD., priority 2020, published 2023)

Experiments:
[1] = test system: lung tumor cells (A549); assay: Tumor inhibition in A549 tumor-bearing nude mice, co-administration (Example 5, Table 7); format: in vivo; conditions: dosed once, 7th day, probiotic component = heat-inactivated Saccharomyces boulardii
Excerpt: The method for determining the effect of combined drug administration in animal experiments was Burgi method (Burgi Y. Pharmacology; Drug actions and reactions. Cancerres. 1978, 38(2), 284-285). The Burgi method was modified by Zhengjun JIN (Zhengjun JIN, Equal probability and curve and “Q50”, Journal of the Second Shanghai Medical College; 1981, 1, 75-86) with q calculated as: q=EA+B/(EA+EB−EA×EB). In the following examples of the present invention, the combinational pharmaceutical efficacies (drug efficacies) of drug A and drug B co-administration was determined by ratio q of actual pharmaceutical efficacy (drug efficacy)/theoretical pharmaceutical efficacy (drug efficacy) according to Zhengjun JIN method, as follows.
Nude mice were used as experimental subjects, and lung tumor cells (A549) were used as modeling cells, 1×10^5 cells/mouse were injected into the right axilla subcutaneously for transplantation tumor modeling, and the average tumor volume of successfully modeled nude mice was 153.7 mm^3. The model animals were randomly divided into 18 groups, and the drugs were administered according to the drug components and administration route in Table 7. Each group was dosed once with an injection volume of […]. Wherein, the probiotic component was heat-inactivated Saccharomyces boulardii, and the administration route of group 16 was intra-tumoral injection of probiotic component followed by intra-tumoral injection of 10% arginine about 2 hours later. On the 7th day after drug administration, the animals were euthanized, and after dissection, the tumor tissue was taken out to determine the tumor weight, and the tumor inhibition rate (r) was calculated relative to the negative control group. Further, the actual efficacy/expected efficacy ratio q of a drug could also be calculated according to the therapeutic effect (tumor inhibition rate).

[2] = test system: breast cancer 4T1 cells; assay: Extra-tumoral local administration in 4T1 tumor-bearing BALB/c mice, R7d/R21d (Example 11, Table 17); format: in vivo; conditions: subaxillary intradermal (extra-tumoral), twice at 7-day interval, 120 μl/mouse/time; for R7 d (relative tumor proliferation rate): day 7 after last dose; for R21 d (relative tumor proliferation rate): day 21 after last dose
Procedure: V=0.5×a×b^2, wherein a and b represent the length and width of the local lesion, respectively; Volume of the local lesion (e.g. tumor):
Local lesion (e.g., tumor) proliferation rate (R)=TV/CV×100, wherein TV and CV are the local lesion volumes in the study group and negative control group, respectively;
In the following examples of the present invention, the combinational pharmaceutical efficacies (drug efficacies) of drug A and drug B co-administration was determined by ratio q of actual pharmaceutical efficacy (drug efficacy)/theoretical pharmaceutical efficacy (drug efficacy) according to Zhengjun JIN method, as follows.
BALB/c mice were used as experimental subjects, and breast cancer 4T1 cells were used as modeling cells. 0.25×10^5 cells/mouse were injected into the right axilla subcutaneously for transplantation tumor modeling. On the 5th day after modeling, the test animals with visually obvious tumors were randomly divided into 12 groups, having 10 animals in each group. […] In groups 1-11, on days 7 and 21 after the last dose the tumor volume (V7d, V21d) were measured, and the relative tumor proliferation rates (R7d, R21d) were calculated relative to the negative control group on days 7 and 21 after the dose, so that the short-term therapeutic effectiveness (100%−R7d) and the medium- and long-term therapeutic effectiveness (100%−R21d) could be calculated, respectively. Further, based on the short-term therapeutic effectiveness and the medium- and long-term therapeutic effectiveness, the actual/expected ratio for short-term pharmaceutical efficacies q7d and the actual/expected ratio for medium- and long-term pharmaceutical efficacies q21d were calculated respectively.

[3] = test system: breast cancer 4T1 cells; assay: Tumor inhibition rate r′10d, r′30d in 4T1 tumor-bearing BALB/c mice (Example 12, Table 18, series A); format: in vivo; conditions: series A modeled mice, intratumoral injection twice at 3-day interval, 50 ul/mouse/time; for Series A r′10d (tumor inhibition rate): 10th day after 1st administration; for Series A r′30d (tumor inhibition rate): 30th day after 1st administration
Procedure: (§1) BALB/c mice were used as experimental subjects, in which modeled animals were used as series A and unmodeled animals as series B. Breast cancer 4T1 cells were use as modeling cells for modeled animals. 0.25×10^5 cells/animal were injected into the right axilla subcutaneously for transplantation tumor modeling, and the average tumor volume of successfully modeled nude mice was 173.6 mm^3. The modeled animals were randomly divided into 18 groups, with 10 animals in each group, and the drugs according to Table 18 was administered via intratumoral injection. BALB/c mice were additionally taken as experimental subjects without modeling, and randomly divided into 18 groups, with 10 animals in each group, the drugs according to Table 18 was administered via intramuscular injection into the right hind thigh. All the study drugs comprising probiotic components were formulated as aqueous formulations according to the preparation method of Example 1, and the other drugs were formulated as aqueous solutions according to the existing well-known methods. Each group was administered twice at an interval of 3 days, and the dosage was 50 ul/mouse/time.
On the 30th day after the first administration, each group of series A and each group of series B were subcutaneous cell transplantation of 1×10^5 breast cancer 4T1 cells/mouse and 0.2×10^5 fibroblast 3T3 cells/mouse respectively to left anterior axilla and left posterior axilla. The tumor incidence rates of 4T1 cell transplantation (S4T1) and of 3T3 cell transplantation (S3T3) in each group were observed on the 10th day after the cell transplantation, wherein the tumor incidence rate S=(number of tumor-bearing animals/number of cell transplanted animals)×100%.

[4] = test system: breast cancer 4T1 cells; assay: Tumor incidence rate after 4T1 cell transplantation (S4T1) on day 30 (Example 12, Table 18); format: in vivo, BALB/c mice; conditions: cells transplanted on 30th day, observed 10th day after transplantation; for Series A S4T1 (tumor incidence rate of 4T1 cell transplantation): series A modeled mice, intratumoral injection; for Series B S4T1 (tumor incidence rate of 4T1 cell transplantation): series B unmodeled mice, intramuscular injection into right hind thigh
Procedure: as §1, with “Breast cancer 4T1 cells were use as modeling cells for modeled animals. 0.25×10^5 cells/animal were injected into the right axilla subcutaneously for transplantation tumor modeling, and the average tumor volume of successfully modeled nude mice was 173.6 mm^3.” left out

[5] = test system: fibroblast 3T3 cells; assay: Tumor incidence rate after 3T3 cell transplantation (S3T3) on day 30 (Example 12, Table 18); format: in vivo, BALB/c mice; conditions: cells transplanted on 30th day, observed 10th day after transplantation; for Series A S3T3 (tumor incidence rate of 3T3 cell transplantation): series A modeled mice, intratumoral injection; for Series B S3T3 (tumor incidence rate of 3T3 cell transplantation): series B unmodeled mice, intramuscular injection into right hind thigh
Procedure: as §1, with “Breast cancer 4T1 cells were use as modeling cells for modeled animals. 0.25×10^5 cells/animal were injected into the right axilla subcutaneously for transplantation tumor modeling, and the average tumor volume of successfully modeled nude mice was 173.6 mm^3.” left out

[6] = intratumoral injection, '+' = arginine injected about 2 hours later

## CCO [75% ethanol, ethanol]
[1]; [6]
  Tumor inhibition rate r: 33.7%
  Tumor weight (x ± s): 0.145 ± 0.084 g
[1]; intravenous injection
  Tumor inhibition rate r: 2.7%
  Tumor weight (x ± s): 0.203 ± 0.095 g
[2]
  R7 d (relative tumor proliferation rate): 92%
  R21 d (relative tumor proliferation rate): 107%
[3]
  Series A r′10d (tumor inhibition rate): 42.1%
  Series A r′30d (tumor inhibition rate): 3.2%
[4]
  Series A S4T1 (tumor incidence rate of 4T1 cell transplantation): 100%
  Series B S4T1 (tumor incidence rate of 4T1 cell transplantation): 100%
[5]
  Series A S3T3 (tumor incidence rate of 3T3 cell transplantation): 100%
  Series B S3T3 (tumor incidence rate of 3T3 cell transplantation): 100%

## O=c1[nH]cc(F)c(=O)[nH]1 [1% 5-fluorouracil, 5-fluorouracil]
[1]; [6]
  Tumor inhibition rate r: 46.6%
  Tumor weight (x ± s): 0.116 ± 0.076 g
[1]; intravenous injection
  Tumor inhibition rate r: 41.3%
  Tumor weight (x ± s): 0.122 ± 0.065 g
[2]
  R7 d (relative tumor proliferation rate): 73%
  R21 d (relative tumor proliferation rate): 93%
[3]
  Series A r′10d (tumor inhibition rate): 38.5%
  Series A r′30d (tumor inhibition rate): 6.1%
[4]
  Series A S4T1 (tumor incidence rate of 4T1 cell transplantation): 100%
  Series B S4T1 (tumor incidence rate of 4T1 cell transplantation): 100%
[5]
  Series A S3T3 (tumor incidence rate of 3T3 cell transplantation): 100%
  Series B S3T3 (tumor incidence rate of 3T3 cell transplantation): 100%
